The results in this text go back to PubChem BioAssay (NCI).

Several values for one entry are separate records, joined by “and”; a condition that tells them apart may be missing. Identical values can stand only once.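 1) Cells in 96-well plates. 2) Compound, 48 h, 5 concentrations. 3) Linear interpolation between surrounding doses. 4) Unreached endpoint = highest concentration. GI50 marks 50% less growth. At the TGI there is no net growth.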 Some results are limits rather than exact numbers.

Some test systems named below: DU-145 prostate; HCT-116 colon; HOP-92 NSCLC; HS 578T breast; K-562 leukemia; OVCAR-3 ovarian; OVCAR-8 ovarian; SF-295 CNS; SF-268 CNS; SNB-19 CNS.
Assay in all cases: growth of human tumour cells (NCI), 48 h

On to `COc1cccc2c(Nc3ccc(C(=O)NCCN(C)C)cc3)cc(-c3ccccc3)nc12`, for which the GI50 in the test with DU-145 prostate was 16.4 µM; in the test on HCT-116 colon, 3.88 µM; in the test with HOP-92 NSCLC it was 0.832 µM; in the test with HS 578T breast it was 21.4 µM; in the test on K-562 leukemia it was 10.8 µM; with OVCAR-3 ovarian, 25.6 µM. The GI50 is 17.3 µM in the test with OVCAR-8 ovarian and 22.9 µM in the test on SF-295 CNS. The TGI in the test with DU-145 prostate came out at 33 µM; in the test on HCT-116 colon, 18.6 µM; in the test with HOP-92 NSCLC, 8.86 µM; with HS 578T breast, 53.6 µM; in the test on K-562 leukemia, 31.5 µM; in the test on OVCAR-3 ovarian, 54.1 µM. Further, the TGI in the test with OVCAR-8 ovarian was found to be 42.7 µM; in the test with SF-295 CNS, 41.4 µM.
With `Clc1ccc(-c2cn(-c3ccccc3)c(-c3ccccc3)n2)c(Cl)c1`, the GI50 with DU-145 prostate was 0.892 µM; in the test on HCT-116 colon, 1.09 µM; in the test with HOP-92 NSCLC, 11.7 µM; in the test on HS 578T breast, 1.27 µM; with K-562 leukemia it was more than 24.6 µM; in the test on OVCAR-3 ovarian, 0.861 µM. The GI50 in the test with OVCAR-8 ovarian is 3.18 µM; in the test with SF-268 CNS, 1.78 µM; with SF-295 CNS, 1.45 µM; in the test on SNB-19 CNS it was 6.98 µM. For the same compound, the TGI was 2.09 µM with DU-145 prostate; 2.66 µM in the test on HCT-116 colon; more than 50 µM with HOP-92 NSCLC; 6.02 µM with HS 578T breast; more than 50 µM with K-562 leukemia; 1.73 µM in the test on OVCAR-3 ovarian. Also, the TGI in the test with OVCAR-8 ovarian is more than 31.5 µM; in the test with SF-268 CNS, more than 11 µM; in the test on SF-295 CNS, 4.68 µM; in the test with SNB-19 CNS, more than 42.6 µM.
Consider `CCOC(=O)c1cnc2c(cnn2CC)c1NN=C(C)C`, for which the GI50 was 29.5 µM with DU-145 prostate; 47.1 µM in the test with HCT-116 colon; 25.3 µM in the test with HOP-92 NSCLC; 24.1 µM in the test on HS 578T breast; 59.6 µM in the test with K-562 leukemia; 39.5 µM with OVCAR-3 ovarian. In addition, the GI50 in the test with OVCAR-8 ovarian was 55.1 µM; in the test with SF-268 CNS, 38.9 µM; in the test on SF-295 CNS, 27.6 µM; with SNB-19 CNS, 32.6 µM. Moreover, the TGI in the test on DU-145 prostate is more than 100 µM; in the test with HCT-116 colon, more than 100 µM; in the test with HOP-92 NSCLC it was more than 100 µM; in the test on HS 578T breast, 87.9 µM; with K-562 leukemia, more than 100 µM; in the test with OVCAR-3 ovarian, more than 100 µM. Besides, the TGI in the test on OVCAR-8 ovarian, in the test with SF-268 CNS, in the test with SF-295 CNS and in the test on SNB-19 CNS was more than 100 µM each time.
For the compound `CCCCC#Cc1cccc(=O)o1`, the GI50 was 29.5 µM in the test with DU-145 prostate; 5.34 µM in the test with HCT-116 colon; 15.3 µM with HOP-92 NSCLC; more than 100 µM in the test on HS 578T breast; 5.23 µM with OVCAR-3 ovarian; more than 100 µM with OVCAR-8 ovarian. Moreover, the GI50 in the test with SF-268 CNS, in the test on SF-295 CNS and in the test on SNB-19 CNS was more than 100 µM throughout. Moreover, the TGI with DU-145 prostate is more than 100 µM; with HCT-116 colon, 30.4 µM; with HOP-92 NSCLC it was more than 100 µM; with HS 578T breast, more than 100 µM; in the test on OVCAR-3 ovarian, more than 100 µM; with OVCAR-8 ovarian, more than 100 µM. Also, the TGI in the test on SF-268 CNS, in the test with SF-295 CNS and with SNB-19 CNS was more than 100 µM throughout.
For `COC(=O)c1cc2c(cc1Cl)SC(N(N(C)C)S(=O)(=O)c1ccc(Cl)cc1)=NS2(=O)=O`, the GI50 is 13.7 µM in the test on DU-145 prostate; 15.6 µM with HCT-116 colon; 14.5 µM with HOP-92 NSCLC; 18.8 µM in the test on HS 578T breast; 11.3 µM in the test on K-562 leukemia; 13 µM in the test with OVCAR-3 ovarian. The GI50 in the test with SF-268 CNS is 20.1 µM; in the test with SF-295 CNS it was 18 µM; in the test on SNB-19 CNS, 17.3 µM. The TGI in the test on DU-145 prostate turned out to be 26.6 µM; in the test with HCT-116 colon, 29 µM; in the test on HOP-92 NSCLC, 30.9 µM; with HS 578T breast, 48.6 µM; in the test with K-562 leukemia, 23.8 µM; in the test with OVCAR-3 ovarian, 37.8 µM. Further, the values for the TGI in the test with SF-268 CNS, with SF-295 CNS and with SNB-19 CNS were 45.5 µM, 51.2 µM and 50.2 µM, respectively.
As to `CC(C)CC(=O)CC(O)C(Cl)(Cl)Cl` (stereo not given), the TGI in the test with DU-145 prostate, in the test on HCT-116 colon, with HS 578T breast, in the test on K-562 leukemia, in the test on OVCAR-3 ovarian and in the test with OVCAR-8 ovarian was more than 100 µM throughout. Also, the TGI with SF-295 CNS and with SNB-19 CNS was more than 100 µM throughout.
For `c1ccc2c(c1)ccc1c3ccccc3ccc21`, the GI50 in the test with DU-145 prostate, with HCT-116 colon, in the test with HOP-92 NSCLC, in the test on HS 578T breast, in the test with K-562 leukemia and in the test on OVCAR-3 ovarian was more than 50 µM in each case. The GI50 in the test with OVCAR-8 ovarian, with SF-268 CNS and in the test on SNB-19 CNS was more than 50 µM in each case. Besides, the TGI in the test with DU-145 prostate, in the test with HCT-116 colon, in the test on HOP-92 NSCLC, in the test with HS 578T breast, in the test on K-562 leukemia and with OVCAR-3 ovarian was more than 50 µM each time. Also, the TGI with OVCAR-8 ovarian, with SF-268 CNS and with SNB-19 CNS was more than 50 µM throughout.
As to `CCN1CCCCC(=N\O)/C(=N/O)CCCC1`, the TGI with DU-145 prostate, in the test on HCT-116 colon, with HOP-92 NSCLC, in the test on HS 578T breast, with OVCAR-3 ovarian and in the test on OVCAR-8 ovarian was more than 100 µM throughout. The TGI with SF-268 CNS, in the test on SF-295 CNS and in the test on SNB-19 CNS was more than 100 µM throughout.
Regarding `COc1ccc(-c2nn(-c3cccc(NC(=O)Nc4cccc(C(F)(F)F)c4)c3)cc2-c2ccncc2)cc1Cl`, the GI50 in the test with DU-145 prostate was 3.56 µM; in the test on HCT-116 colon it was 1.31 µM; with HOP-92 NSCLC it was 0.229 µM; in the test on HS 578T breast, 1.65 µM; in the test on K-562 leukemia, 1.92 µM; in the test with OVCAR-8 ovarian, 1.7 µM. Moreover, the GI50 in the test on SF-268 CNS was 3.22 µM; in the test on SF-295 CNS, 1.69 µM; with SNB-19 CNS, 3.85 µM. The TGI was more than 100 µM with DU-145 prostate; 9.04 µM in the test on HCT-116 colon; 3 µM in the test with HOP-92 NSCLC; 7.84 µM with HS 578T breast; more than 100 µM in the test with K-562 leukemia; 10.4 µM in the test on OVCAR-8 ovarian. Also, the TGI was more than 100 µM in the test on SF-268 CNS, 7.32 µM in the test on SF-295 CNS and more than 100 µM in the test with SNB-19 CNS.
In the case of `CN(C)CCCC(=O)Nc1ccc(Cn2nnc3c2C(=O)c2nnn(Cc4ccc(NC(=O)CCCN(C)C)cc4)c2C3=O)cc1`, the GI50 is 3.48 µM with DU-145 prostate; 3.03 µM in the test with HCT-116 colon; 2.51 µM in the test on HOP-92 NSCLC; 2.93 µM in the test with HS 578T breast; 5.45 µM with K-562 leukemia; 2.38 µM in the test with OVCAR-3 ovarian. Further, the GI50 in the test with OVCAR-8 ovarian was 5.25 µM; in the test with SF-268 CNS it was 3.29 µM; in the test with SF-295 CNS, 14.4 µM. The TGI is 10.6 µM in the test with DU-145 prostate; 11.6 µM with HCT-116 colon; 5.82 µM in the test with HOP-92 NSCLC; 7.68 µM with HS 578T breast; 55.9 µM in the test on K-562 leukemia; 6.02 µM in the test with OVCAR-3 ovarian. Besides, the TGI in the test with OVCAR-8 ovarian was 29.3 µM; in the test on SF-268 CNS, 12.8 µM; in the test with SF-295 CNS it was 31.5 µM.
For `O=[N+]([O-])c1ccc(O)c2ncccc12`, the TGI in the test on DU-145 prostate was > 100 µM and 15.2 µM; in the test with HCT-116 colon, > 100 µM and 12.5 µM; with HOP-92 NSCLC, 82.6 µM and 21.3 µM; with HS 578T breast, more than 100 µM; with K-562 leukemia it was > 100 µM and 15.5 µM; in the test on OVCAR-8 ovarian, > 100 µM and 19.1 µM. The TGI in the test on SF-268 CNS was > 100 µM and 16 µM; in the test with SF-295 CNS, 82.4 µM and 13.1 µM; in the test on SNB-19 CNS, > 100 µM and 32.6 µM. Also, the GI50 is 19.1 µM and 4.22 µM with HOP-92 NSCLC; 22 µM and 2.28 µM in the test with SF-295 CNS.
`Cc1ccc(-n2c(-c3ccc(Cl)cc3)cs/c2=N\NC(=O)COc2n[nH]c(=O)c3ccccc23)cc1`: the GI50 with DU-145 prostate was more than 100 µM; in the test with HOP-92 NSCLC it was 34.6 µM; in the test on HS 578T breast, 27.5 µM; in the test with K-562 leukemia it was more than 100 µM; in the test with OVCAR-3 ovarian, more than 100 µM; in the test with OVCAR-8 ovarian it was 16.6 µM. Also, the GI50 was 32.9 µM in the test on SF-268 CNS, 19.7 µM in the test on SF-295 CNS and 40 µM in the test on SNB-19 CNS. For the same compound, the TGI with DU-145 prostate, in the test with HOP-92 NSCLC, in the test on HS 578T breast, in the test on K-562 leukemia, with OVCAR-3 ovarian and in the test with OVCAR-8 ovarian was more than 100 µM throughout. Moreover, the TGI in the test with SF-268 CNS, with SF-295 CNS and in the test with SNB-19 CNS was more than 100 µM in each case.
On to `C=CCNc1cccc2c1C(=O)c1ccccc1C2(O)CC=C` (stereo not given), for which the GI50 with DU-145 prostate was 24.9 µM; with HCT-116 colon, 17.7 µM; in the test with HOP-92 NSCLC, 27.4 µM; in the test on HS 578T breast it was 18.8 µM; with K-562 leukemia it was 31.1 µM; in the test with OVCAR-8 ovarian, 19.5 µM. Moreover, the GI50 in the test on SF-268 CNS is 62.7 µM; with SF-295 CNS, 25.7 µM; in the test on SNB-19 CNS it was 18.5 µM. Also, the TGI in the test on DU-145 prostate is 63 µM; in the test on HCT-116 colon, 32.3 µM; in the test with HOP-92 NSCLC, 55.4 µM; in the test on HS 578T breast, 43.5 µM; in the test on K-562 leukemia, 95.2 µM; in the test on OVCAR-8 ovarian it was 47.1 µM. Besides, the TGI with SF-268 CNS is more than 100 µM; in the test with SF-295 CNS it was 55 µM; with SNB-19 CNS it was 44.7 µM.
